Results reported in patent US10300065B2, “Method of treating or prevention of atherothrombotic events in patients with history of myocardial infarction” (ASTRAZENECA AB, priority 2015, dated 2019).
Where two headings read alike, the source gives them in different places.

Test system: patients with a history of myocardial infarction
Conditions: for TIMI major bleeding events per year if 10,000 patients were started on treatment versus placebo: intention-to-treat data; for Death: (%) / Death: n / Non-Cardiovascular death: (%) / Non-Cardiovascular death: n: intention-to-treat population; for proportion of patients who prematurely discontinued treatment: over the duration of the trial
[1] = 60 mg bid (N = 6958), % of patients
[2] = 60 mg bid (N = 6958), listed as ticagrelor
[3] = 90 mg bid (N = 6988), listed as ticagrelor

Source text: Any erroneously treated patients (e.g., randomized to ticagrelor but actually given placebo) were to be accounted for in the actual treatment group.
The primary efficacy endpoint was the composite of cardiovascular death, myocardial infarction, or stroke. Secondary endpoints were cardiovascular death and all-cause mortality. The analysis of secondary endpoints proceeded in a hierarchical fashion, starting with cardiovascular death and then death from any cause. Additional endpoints listed below were evaluated on an exploratory basis. Exploratory efficacy endpoints included substituting coronary heart disease death for cardiovascular death, and the additional end points of urgent coronary revascularization, unstable angina, and transient ischemic attack. The primary safety endpoint was TIMI major bleeding. Other safety endpoints included intracranial hemorrhage (ICH) and fatal bleeding. […] A central clinical events committee whose members were unaware of the treatment assignments adjudicated all efficacy endpoints and bleeding episodes.
Safety analyses included all randomized patients who received at least one dose of study drug and for whom post-dose data were available. Patients were censored at the first of the pre-specified Common Study End Date, withdrawal of consent, or the last clinical event assessment. Safety was analyzed as on-treatment including all events occurring after first dose and within 7 days after the last dose of study drug. […] Event rates are expressed as Kaplan-Meier estimates of cumulative incidence.

## CCCSc1nc(N[C@@H]2C[C@H]2c2ccc(F)c(F)c2)c2nnn([C@@H]3C[C@H](OCCO)[C@@H](O)[C@H]3O)c2n1 [Ticagrelor, (1S,2S,3R,5S)-3-[7-{[(1R,2S)-2-(3,4-difluorophenyl)cyclopropyl]amino}-5-(propylthio)-3H-[1,2,3]-triazolo[4,5-d]pyrimidin-3-yl]-5-(2-hydroxyethoxy)cyclopentane-1,2-diol]
60 mg bid
  Dyspnea, 3-year event rate: 15.8%
  Fatal bleeding: ARI (%): −0.01%
  Hypotension: 0.66 events/100 pt years
  ICH: ARI (%): 0.14%
  ICH: NNH: 714
  TIMI major bleeding: ARI (%): 1.24%
  TIMI major bleeding: NNH: 81
  frequency of death (including bleeding): 4.2%
  frequency of death, bleeding events excluded: 3.9%
  median duration of resolved dyspnea adverse events: 31 days
  patients with serum creatinine concentration increased by >50%: approximately 4%
  syncope, patients reporting: 1.2%
  TIMI major bleeding events per year if 10,000 patients were started on treatment versus placebo: 31
  Death: (%): (4.1) %
  Death: n: 289
  Non-Cardiovascular death: (%): (1.6) %
  Non-Cardiovascular death: n: 113
60 mg bid (N = 6958)
  Adverse event leading to death: (%): (2.1) %
  Adverse event leading to death: n: 149
  Adverse event leading to discontinuation of study drug: (%): (16.1) %
  Adverse event leading to discontinuation of study drug: n: 1117
  Any adverse event: (%): (75.7) %
  Any adverse event: n: 5268
  Any serious adverse event: (%): (21.5) %
  Any serious adverse event: n: 1499
  Bleeding leading to study drug discontinuation: 3-year Kaplan-Meier estimate: (6.2) %
  Bleeding leading to study drug discontinuation: n: 355
  Bleeding requiring transfusion: 3-year Kaplan-Meier estimate: (2.10) %
  Bleeding requiring transfusion: n: 105
  Bradyarrhythmia adverse event: (%): (1.7) %
  Bradyarrhythmia adverse event: n: 121
  Dyspnea AE: (%): (14.17) %
  Dyspnea AE: n: 986
  Dyspnea SAE: (%): (0.3) %
  Dyspnea SAE: n: 22
  Dyspnea leading to study drug discontinuation: (%): (4.3) %
  Dyspnea leading to study drug discontinuation: n: 296
  Fatal Bleeding: 3-year Kaplan-Meier estimate: (0.25) %
  Fatal Bleeding: n: 11
  Fatal bleeding or non-fatal intracranial hemorrhage: 3-year Kaplan-Meier estimate: (0.63) %
  Fatal bleeding or non-fatal intracranial hemorrhage: n: 32
  Fatal bleeding: (%) patients with event: (0.2) %
  Fatal bleeding: Events/100 pt yrs: 0.08 Events/100 pt yrs
  Gout adverse event: (%): (1.4) %
  Gout adverse event: n: 97
  Intracranial Hemorrhage: 3-year Kaplan-Meier estimate: (0.61) %
  Intracranial Hemorrhage: n: 28
  Intracranial hemorrhage: (%) patients with event: (0.4) %
  Intracranial hemorrhage: Events/100 pt yrs: 0.19 Events/100 pt yrs
  Renal adverse event: (%): (2.5) %
  Renal adverse event: n: 173
  Serious adverse event leading to discontinuation of study drug: (%): (3.7) %
  Serious adverse event leading to discontinuation of study drug: n: 255
  TIMI Major bleeding: 3-year Kaplan-Meier estimate: (2.30) %
  TIMI Major bleeding: n: 115
  TIMI Major or Minor: (%) patients with event: (2.4) %
  TIMI Major or Minor: Events/100 pt yrs: 1.15 Events/100 pt yrs
  TIMI Major or Minor: n patients with event: 168
  TIMI Major: (%) patients with event: (1.7) %
  TIMI Major: Events/100 pt yrs: 0.78 Events/100 pt yrs
  TIMI Minor bleeding: 3-year Kaplan-Meier estimate: (1.18) %
  TIMI Minor bleeding: n: 55
[1]
  Non-hemorrhagic adverse reaction: Diarrhea: 3.3%
  Non-hemorrhagic adverse reaction: Dizziness: 4.5%
  Non-hemorrhagic adverse reaction: Dyspnea: 14.2%
[2]
  Bleeding leading to study drug discontinuation: 3-year Kaplan-Meier estimate: 6.2%
  Bleeding requiring transfusion: 3-year Kaplan-Meier estimate: 2.1%
  Dyspnea leading to study drug discontinuation: (%): 4.3%
  Fatal Bleeding: 3-year Kaplan-Meier estimate: 0.3%
  Intracranial Hemorrhage: 3-year Kaplan-Meier estimate: 0.6%
  TIMI Major bleeding: 3-year Kaplan-Meier estimate: 2.30%
60 mg bid vs Placebo
  Bleeding leading to study drug discontinuation: HR: 4.31
  Bleeding requiring transfusion: HR: 3.08
  Dyspnea AE: HR: 2.82
  Dyspnea SAE: HR: 2.91
  Dyspnea leading to study drug discontinuation: HR: 6.35
  Fatal Bleeding: HR: 1.00
  Fatal bleeding or non-fatal intracranial hemorrhage: HR: 1.22
  Intracranial Hemorrhage: HR: 1.33
  TIMI Major bleeding: HR: 2.32
  TIMI Minor bleeding: HR: 3.31
60 mg
  proportion of patients who prematurely discontinued treatment: 28.7%
90 mg bid
  Dyspnea, 3-year event rate: 18.9%
  Fatal bleeding: ARI (%): −0.15%
  Hypotension: 0.66 events/100 pt years
  ICH: ARI (%): 0.09%
  ICH: NNH: 1111
  TIMI major bleeding: ARI (%): 1.54%
  TIMI major bleeding: NNH: 65
  frequency of death (including bleeding): 4.8%
  frequency of death, bleeding events excluded: 4.4%
  median duration of resolved dyspnea adverse events: 22 days
  TIMI major bleeding events per year if 10,000 patients were started on treatment versus placebo: 41
  Death: (%): (4.6) %
  Death: n: 326
  Non-Cardiovascular death: (%): (2.0) %
  Non-Cardiovascular death: n: 142
90 mg bid (N = 6988)
  Adverse event leading to death: (%): (2.3) %
  Adverse event leading to death: n: 161
  Adverse event leading to discontinuation of study drug: (%): (18.7) %
  Adverse event leading to discontinuation of study drug: n: 1306
  Any adverse event: (%): (76.2) %
  Any adverse event: n: 5327
  Any serious adverse event: (%): (21.7) %
  Any serious adverse event: n: 1514
  Bleeding leading to study drug discontinuation: 3-year Kaplan-Meier estimate: (7.80) %
  Bleeding leading to study drug discontinuation: n: 454
  Bleeding requiring transfusion: 3-year Kaplan-Meier estimate: (2.40) %
  Bleeding requiring transfusion: n: 122
  Bradyarrhythmia adverse event: (%): (1.5) %
  Bradyarrhythmia adverse event: n: 105
  Dyspnea AE: (%): (17.22) %
  Dyspnea AE: n: 1204
  Dyspnea SAE: (%): (0.3) %
  Dyspnea SAE: n: 22
  Dyspnea leading to study drug discontinuation: (%): (6.2) %
  Dyspnea leading to study drug discontinuation: n: 430
  Fatal Bleeding: 3-year Kaplan-Meier estimate: (0.11) %
  Fatal Bleeding: n: 6
  Fatal bleeding or non-fatal intracranial hemorrhage: 3-year Kaplan-Meier estimate: (0.71) %
  Fatal bleeding or non-fatal intracranial hemorrhage: n: 33
  Gout adverse event: (%): (1.4) %
  Gout adverse event: n: 99
  Intracranial Hemorrhage: 3-year Kaplan-Meier estimate: (0.56) %
  Intracranial Hemorrhage: n: 29
  Renal adverse event: (%): (2.4) %
  Renal adverse event: n: 166
  Serious adverse event leading to discontinuation of study drug: (%): (3.7) %
  Serious adverse event leading to discontinuation of study drug: n: 256
  TIMI Major bleeding: 3-year Kaplan-Meier estimate: (2.60) %
  TIMI Major bleeding: n: 127
  TIMI Minor bleeding: 3-year Kaplan-Meier estimate: (1.31) %
  TIMI Minor bleeding: n: 66
[3]
  Bleeding leading to study drug discontinuation: 3-year Kaplan-Meier estimate: 7.8%
  Bleeding requiring transfusion: 3-year Kaplan-Meier estimate: 2.4%
  Dyspnea leading to study drug discontinuation: (%): 6.5%
  Fatal Bleeding: 3-year Kaplan-Meier estimate: 0.1%
  Intracranial Hemorrhage: 3-year Kaplan-Meier estimate: 0.6%
  TIMI Major bleeding: 3-year Kaplan-Meier estimate: 2.60%
90 mg bid vs Placebo
  Bleeding leading to study drug discontinuation: HR: 5.67
  Bleeding requiring transfusion: HR: 3.75
  Dyspnea AE: HR: 3.55
  Dyspnea SAE: HR: 3.02
  Dyspnea leading to study drug discontinuation: HR: 8.89
  Fatal Bleeding: HR: 0.58
  Fatal bleeding or non-fatal intracranial hemorrhage: HR: 1.20
  Intracranial Hemorrhage: HR: 1.44
  TIMI Major bleeding: HR: 2.69
  TIMI Minor bleeding: HR: 4.15
90 mg
  proportion of patients who prematurely discontinued treatment: 32.0%
PEGASUS, 60 mg bid
  serum uric acid level increase from baseline: approximately 0.2 mg/dL
PEGASUS, experimental arm
  Gout, patients: 1.5%
Either dose of ticagrelor
  dyspneic episodes characterized as mild: 57%
  dyspneic episodes characterized as moderate: 38%
Patients on ticagrelor
  dyspnea as a serious adverse event, 3-year rate: 0.3%
